# Data as given in US10842838B2, “Method for the use of botanical extracts in the treatment of viral infections” (priority 2012, dated 2020).
# System: VACV
# Format: cell-based, vaccinia virus
# Settings: 100 pfu VACV, 48 HPI
structure (smiles),measurement,value
C=C(C)[C@@H]1CC[C@]2(C)CC[C@]3(C)[C@H](CC[C@@H]4[C@@]5(C)CC[C@H](O)C(C)(C)[C@@H]5CC[C@]43C)[C@@H]12 [lupeol],"antiviral activity, VACV plaques",did not show suitable antiviral activity
